From ChEMBL document CHEMBL4145553, “Design, synthesis, and biological evaluation of novel amide and hydrazide based thioether analogs targeting Histone deacteylase (HDAC) enzymes” (Eur J Med Chem, 2018)
Activity calls are given as the source filed them. No cut-off for these calls is given here.

Legend:
EKVX = assay: Growth inhibition of human EKVX cells assessed as cell growth at 10^-8 M incubated for 48 hrs by sulforhodamine B assay relative to control; assay type: functional; conditions: read-out: Activity
NCI-H226 = assay: Growth inhibition of human NCI-H226 cells assessed as cell growth at 10^-8 M incubated for 48 hrs by sulforhodamine B assay relative to control; assay type: functional; conditions: NCI-H226, 48 h, read-out: Activity
M14 [1] = assay: Growth inhibition of human M14 cells assessed as cell growth at 10^-8 M incubated for 48 hrs by sulforhodamine B assay relative to control; assay type: functional; conditions: M14, 48 h, read-out: Activity
SK-MEL-2 [2] = assay: Growth inhibition of human SK-MEL-2 cells assessed as cell growth at 10^-8 M incubated for 48 hrs by sulforhodamine B assay relative to control; assay type: functional; conditions: SK-MEL-2, 48 h, read-out: Activity
CAKI-1 [3] = assay: Growth inhibition of human Caki1 cells assessed as cell growth at 10^-8 M incubated for 48 hrs by sulforhodamine B assay relative to control; assay type: functional; conditions: CAKI-1, 48 h, read-out: Activity
COLO 205 = assay: Growth inhibition of human COLO205 cells assessed as cell growth at 10^-7 M incubated for 48 hrs by sulforhodamine B assay relative to control; assay type: functional; conditions: COLO 205, 48 h, read-out: Activity
SW-620 = assay: Growth inhibition of human SW620 cells assessed as cell growth at 10^-7 M incubated for 48 hrs by sulforhodamine B assay relative to control; assay type: functional; conditions: SW-620, 48 h, read-out: Activity
MDA-MB-435 [4] = assay: Growth inhibition of human MDA-MB-435 cells assessed as cell growth at 10^-7 M incubated for 48 hrs by sulforhodamine B assay relative to control; assay type: functional; conditions: MDA-MB-435, 48 h, read-out: Activity
OVCAR-3 = assay: Growth inhibition of human OVCAR3 cells assessed as cell growth at 10^-7 M incubated for 48 hrs by sulforhodamine B assay relative to control; assay type: functional; conditions: OVCAR-3, 48 h, read-out: Activity
MCF7 = assay: Growth inhibition of human MCF7 cells assessed as cell growth at 10^-7 M incubated for 48 hrs by sulforhodamine B assay relative to control; assay type: functional; conditions: MCF7, 48 h, read-out: Activity
NCI-H23 = assay: Growth inhibition of human NCI-H23 cells assessed as cell growth at 10^-6 M incubated for 48 hrs by sulforhodamine B assay relative to control; assay type: functional; conditions: NCI-H23, 48 h, read-out: Activity
NCI-H522 = assay: Growth inhibition of human NCI-H522 cells assessed as cell growth at 10^-6 M incubated for 48 hrs by sulforhodamine B assay relative to control; assay type: functional; conditions: NCI-H522, 48 h, read-out: Activity
SNB-75 [5] = assay: Growth inhibition of human SNB75 cells assessed as cell growth at 10^-6 M incubated for 48 hrs by sulforhodamine B assay relative to control; assay type: functional; conditions: SNB-75, 48 h, read-out: Activity
MDA-MB-468 = assay: Growth inhibition of human MDA-MB-468 cells assessed as cell growth at 10^-6 M incubated for 48 hrs by sulforhodamine B assay relative to control; assay type: functional; conditions: MDA-MB-468, 48 h, read-out: Activity
SNB-75 [6] = assay: Growth inhibition of human SNB75 cells assessed as cell growth at 10^-5 M incubated for 48 hrs by sulforhodamine B assay relative to control; assay type: functional; conditions: SNB-75, 48 h, read-out: Activity
MDA-MB-435 [7] = assay: Growth inhibition of human MDA-MB-435 cells assessed as cell growth at 10^-5 M incubated for 48 hrs by sulforhodamine B assay relative to control; assay type: functional; conditions: MDA-MB-435, 48 h, read-out: Activity
SK-MEL-2 [8] = assay: Growth inhibition of human SK-MEL-2 cells assessed as cell growth at 10^-5 M incubated for 48 hrs by sulforhodamine B assay relative to control; assay type: functional; conditions: SK-MEL-2, 48 h, read-out: Activity
OVCAR-5 = assay: Growth inhibition of human OVCAR5 cells assessed as cell growth at 10^-5 M incubated for 48 hrs by sulforhodamine B assay relative to control; assay type: functional; conditions: OVCAR-5, 48 h, read-out: Activity
NCI/ADR-RES = assay: Growth inhibition of human NCI/ADR-RES cells assessed as cell growth at 10^-5 M incubated for 48 hrs by sulforhodamine B assay relative to control; assay type: functional; conditions: read-out: Activity
SN12C = assay: Growth inhibition of human SN12C cells assessed as cell growth at 10^-5 M incubated for 48 hrs by sulforhodamine B assay relative to control; assay type: functional; conditions: read-out: Activity
SF-539 = assay: Growth inhibition of human SF539 cells assessed as cell growth at 10^-4 M incubated for 48 hrs by sulforhodamine B assay relative to control; assay type: functional; conditions: SF-539, 48 h, read-out: Activity
SNB-19 = assay: Growth inhibition of human SNB19 cells assessed as cell growth at 10^-4 M incubated for 48 hrs by sulforhodamine B assay relative to control; assay type: functional; conditions: SNB-19, 48 h, read-out: Activity
U-251 = assay: Growth inhibition of human U251 cells assessed as cell growth at 10^-4 M incubated for 48 hrs by sulforhodamine B assay relative to control; assay type: functional; conditions: U-251, 48 h, read-out: Activity
CAKI-1 [9] = assay: Growth inhibition of human Caki1 cells assessed as cell growth at 10^-4 M incubated for 48 hrs by sulforhodamine B assay relative to control; assay type: functional; conditions: CAKI-1, 48 h, read-out: Activity
SR = assay: Growth inhibition of human SR cells incubated for 48 hrs by sulforhodamine B assay; assay type: functional
M14 [10] = assay: Growth inhibition of human M14 cells incubated for 48 hrs by sulforhodamine B assay; assay type: functional; conditions: M14, 48 h
OVCAR-4 = assay: Growth inhibition of human OVCAR4 cells incubated for 48 hrs by sulforhodamine B assay; assay type: functional; conditions: OVCAR-4, 48 h
MDA-MB-435 [11] = assay: Cell cycle arrest in human MDA-MB-435 cells assessed as accumulation at G1-phase by propidium iodide staining based flow cytometry (reference value: 69.15%); assay type: functional
HL-60 [12] = assay: Induction of apoptosis in human HL60 cells assessed as increase in caspase-9 expression by qRT-PCR method; assay type: functional, cell-based
MDA-MB-435 [13] = assay: Induction of apoptosis in human MDA-MB-435 cells assessed as increase in caspase-3 expression by qRT-PCR method; assay type: functional, cell-based
Histone deacetylase 2 = Histone deacetylase 2 (Homo sapiens, UniProt Q92769); assay: Inhibition of human HDAC2 by ELISA
HL-60 [14] = assay: Downregulation of HDAC1 mRNA expression in human HL60 cells by qRT-PCR method; assay type: functional, cell-based
MDA-MB-435 [15] = assay: Downregulation of HDAC3 mRNA expression in human MDA-MB-435 cells by qRT-PCR method; assay type: functional, cell-based
[16] = read-out: LC50 (the source's name)
[17] = read-out: pLC50 (the source's name) (converted)

Chain of Histone deacetylase 2 (Q92769 whole entry): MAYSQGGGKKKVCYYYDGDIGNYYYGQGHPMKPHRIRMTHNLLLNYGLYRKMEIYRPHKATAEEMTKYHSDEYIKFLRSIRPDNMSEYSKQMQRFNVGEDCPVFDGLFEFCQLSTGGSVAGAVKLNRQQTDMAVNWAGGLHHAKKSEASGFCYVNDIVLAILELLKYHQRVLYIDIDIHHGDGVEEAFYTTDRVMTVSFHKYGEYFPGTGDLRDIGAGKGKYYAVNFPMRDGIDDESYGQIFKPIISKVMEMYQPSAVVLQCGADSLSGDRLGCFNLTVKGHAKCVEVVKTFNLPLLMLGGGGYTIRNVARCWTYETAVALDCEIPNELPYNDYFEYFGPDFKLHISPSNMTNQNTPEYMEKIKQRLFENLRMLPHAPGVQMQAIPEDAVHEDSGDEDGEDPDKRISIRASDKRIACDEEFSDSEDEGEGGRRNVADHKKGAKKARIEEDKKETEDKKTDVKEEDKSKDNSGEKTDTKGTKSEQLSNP

## CCS/C(Nc1ccccc1)=C(\C#N)C(=O)Nc1ccc(OC)cc1
EKVX
  growth at 0.01 µM: 89%
NCI-H226
  growth at 0.01 µM: 95%
M14 [1]
  growth at 0.01 µM: 102%
SK-MEL-2 [2]
  growth at 0.01 µM: 106%
CAKI-1 [3]
  growth at 0.01 µM: 90%
COLO 205
  growth at 0.1 µM: 97%
SW-620
  growth at 0.1 µM: 94%
MDA-MB-435 [4]
  growth at 0.1 µM: 91%
OVCAR-3
  growth at 0.1 µM: 97%
MCF7
  growth at 0.1 µM: 93%
NCI-H23
  growth at 1 µM: 85%
NCI-H522
  growth at 1 µM: 77%
SNB-75 [5]
  growth at 1 µM: 81%
MDA-MB-468
  growth at 1 µM: 60%
SNB-75 [6]
  growth at 10 µM: -13%
MDA-MB-435 [7]
  growth at 10 µM: -49%
SK-MEL-2 [8]
  growth at 10 µM: 11%
OVCAR-5
  growth at 10 µM: 33%
NCI/ADR-RES
  growth at 10 µM: 18%
SN12C
  growth at 10 µM: 37%
SF-539
  growth at 100 µM: -54%
SNB-19
  growth at 100 µM: 14%
U-251
  growth at 100 µM: 6%
CAKI-1 [9]
  growth at 100 µM: 18%
SR; read-out: GI50
  GI50: 1.54 µM
SR; [16]
  CC50: > 100 µM
SR; read-out: TGI
  TGI: > 100 µM
SR; read-out: pGI50 (converted)
  GI50: 1.55 µM
SR; [17]
  CC50: > 100 µM
SR; read-out: pTGI
  TGI: > 100 µM
M14 [10]; read-out: GI50
  GI50: 2.27 µM
M14 [10]; [16]
  CC50: > 100 µM
M14 [10]; read-out: TGI
  TGI: 87.4 µM
M14 [10]; read-out: pGI50 (converted)
  GI50: 2.29 µM
M14 [10]; [17]
  CC50: > 100 µM
M14 [10]; read-out: pTGI (converted)
  TGI: 87.1 µM
OVCAR-4; read-out: GI50
  GI50: 7.61 µM
OVCAR-4; [16]
  CC50: > 100 µM
OVCAR-4; read-out: TGI
  TGI: > 100 µM
OVCAR-4; read-out: pGI50 (converted)
  GI50: 7.59 µM
OVCAR-4; [17]
  CC50: > 100 µM
OVCAR-4; read-out: pTGI
  TGI: > 100 µM
MDA-MB-435 [11]
  Activity: 51.68%
HL-60 [12]
  Activity: Active
MDA-MB-435 [13]
  Activity: Active
Histone deacetylase 2
  IC50: 0.032 µM
HL-60 [14]
  Activity: Active
MDA-MB-435 [15]
  Activity: Active

## CCS/C(Nc1ccccc1)=C(\C#N)C(=O)N/N=C\c1ccc(Cl)cc1Cl
EKVX
  growth at 0.01 µM: 98%
NCI-H226
  growth at 0.01 µM: 90%
M14 [1]
  growth at 0.01 µM: 101%
SK-MEL-2 [2]
  growth at 0.01 µM: 106%
CAKI-1 [3]
  growth at 0.01 µM: 94%
COLO 205
  growth at 0.1 µM: 97%
SW-620
  growth at 0.1 µM: 92%
MDA-MB-435 [4]
  growth at 0.1 µM: 86%
OVCAR-3
  growth at 0.1 µM: 97%
MCF7
  growth at 0.1 µM: 89%
NCI-H23
  growth at 1 µM: 90%
NCI-H522
  growth at 1 µM: 68%
SNB-75 [5]
  growth at 1 µM: 76%
MDA-MB-468
  growth at 1 µM: 88%
SNB-75 [6]
  growth at 10 µM: -2%
MDA-MB-435 [7]
  growth at 10 µM: -53%
SK-MEL-2 [8]
  growth at 10 µM: 16%
OVCAR-5
  growth at 10 µM: 45%
NCI/ADR-RES
  growth at 10 µM: 13%
SN12C
  growth at 10 µM: 41%
SF-539
  growth at 100 µM: -6%
SNB-19
  growth at 100 µM: 21%
U-251
  growth at 100 µM: 12%
CAKI-1 [9]
  growth at 100 µM: 13%
SR; read-out: GI50
  GI50: 3.45 µM
SR; [16]
  CC50: > 100 µM
SR; read-out: TGI
  TGI: > 100 µM
SR; read-out: pGI50 (converted)
  GI50: 3.47 µM
SR; [17]
  CC50: > 100 µM
SR; read-out: pTGI
  TGI: > 100 µM
M14 [10]; read-out: GI50
  GI50: 2.01 µM
M14 [10]; [16]
  CC50: > 100 µM
M14 [10]; read-out: TGI
  TGI: 9.61 µM
M14 [10]; read-out: pGI50 (converted)
  GI50: 2 µM
M14 [10]; [17]
  CC50: > 100 µM
M14 [10]; read-out: pTGI (converted)
  TGI: 9.55 µM
OVCAR-4; read-out: GI50
  GI50: 6.57 µM
OVCAR-4; [16]
  CC50: > 100 µM
OVCAR-4; read-out: TGI
  TGI: > 100 µM
OVCAR-4; read-out: pGI50 (converted)
  GI50: 6.61 µM
OVCAR-4; [17]
  CC50: > 100 µM
OVCAR-4; read-out: pTGI
  TGI: > 100 µM
MDA-MB-435 [11]
  Activity: 61.56%
HL-60 [12]
  Activity: Active
MDA-MB-435 [13]
  Activity: Active
Histone deacetylase 2
  IC50: 0.02 µM
HL-60 [14]
  Activity: Active
MDA-MB-435 [15]
  Activity: Active
